# The source made the active and inactive calls.
# Assays:
# Large T antigen = Large T antigen (Simian virus 40, UniProt P03070); format: functional, Betapolyomavirus macacae;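 also: Confirmatory-stage PubChem screen for compounds that inhibit SV40 T antigen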
# Cytochrome P450 3A4 = Cytochrome P450 3A4 (Homo sapiens, UniProt P08684); details: Potency;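 also: confirmatory qHTS run detecting inhibitors and substrates of CYP3A4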
# Nonstructural protein 1 = Nonstructural protein 1 (Influenza A virus, UniProt Q194T2); format: functional, Influenza A virus (A/California/07/2009(H1N1))
# Chain of Nonstructural protein 1 (Q194T2 whole entry, the tested form may be a part): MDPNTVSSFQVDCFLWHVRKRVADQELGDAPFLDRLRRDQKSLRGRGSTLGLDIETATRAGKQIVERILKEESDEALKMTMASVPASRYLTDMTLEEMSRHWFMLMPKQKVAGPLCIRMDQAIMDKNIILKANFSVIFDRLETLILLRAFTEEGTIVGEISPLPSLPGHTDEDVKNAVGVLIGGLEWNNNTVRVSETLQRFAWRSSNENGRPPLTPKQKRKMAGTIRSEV
# [1] = molecular target: T1, RNA-binding protein pos-1 (Caenorhabditis elegans, UniProt G5EF15); assay: disruptors of C. elegans POS-1 RNA interaction – biochemical, fluorescence polarization, dose response (AID 1964);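 also: purified POS-1 fused to maltose binding protein made in E. coli; potency of compounds blocking POS-1 binding to fluorescent RNA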
# T1 sequence (G5EF15 whole entry): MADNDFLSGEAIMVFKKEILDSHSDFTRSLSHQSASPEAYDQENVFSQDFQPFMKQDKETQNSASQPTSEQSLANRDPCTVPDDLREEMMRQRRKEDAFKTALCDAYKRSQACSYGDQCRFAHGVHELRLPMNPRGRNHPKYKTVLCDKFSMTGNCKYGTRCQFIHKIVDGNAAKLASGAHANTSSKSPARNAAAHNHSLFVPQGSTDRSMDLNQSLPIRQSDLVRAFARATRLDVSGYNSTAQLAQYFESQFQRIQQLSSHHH
# [2] = molecular target: T2, Zinc finger protein mex-5 (Caenorhabditis elegans, UniProt Q9XUB2); assay: potency of MEX-5 RNA-binding blockers – biochemical, C. elegans, fluorescence polarization, dose response (AID 1960)
# T2 sequence (Q9XUB2 whole entry): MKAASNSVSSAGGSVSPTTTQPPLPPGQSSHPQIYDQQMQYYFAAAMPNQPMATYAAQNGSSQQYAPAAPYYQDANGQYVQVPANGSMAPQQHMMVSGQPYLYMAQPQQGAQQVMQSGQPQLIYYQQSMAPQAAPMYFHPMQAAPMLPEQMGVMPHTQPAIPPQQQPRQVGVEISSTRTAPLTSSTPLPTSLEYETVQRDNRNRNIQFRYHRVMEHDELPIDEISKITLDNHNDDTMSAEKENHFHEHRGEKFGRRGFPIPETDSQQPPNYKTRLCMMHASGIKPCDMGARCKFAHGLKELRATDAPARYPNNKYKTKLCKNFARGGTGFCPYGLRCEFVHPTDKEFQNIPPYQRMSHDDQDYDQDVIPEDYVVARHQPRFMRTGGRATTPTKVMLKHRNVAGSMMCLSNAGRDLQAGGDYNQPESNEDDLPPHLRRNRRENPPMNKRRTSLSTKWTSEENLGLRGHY
# BJ [3] = assay: BJ-TERT fibroblast viability loss – cell-based, RAS-independent, luminescence, dose response (AID 1933); format: functional; details: Homo sapiens
# BJ [4] = assay: cells; format: functional, cell-based; details: Homo sapiens
# BJ [5] = assay: BJ-TERT-LT-ST fibroblast viability loss – cell-based, RAS-independent, luminescence, dose response (AID 1935); format: functional; details: Homo sapiens;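 also: BJ fibroblasts immortalized with TERT plus LT and ST oncogenes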
# [6] = DRD fibroblast viability loss – cell-based, non-viral oncogenic, luminescence, dose response (AID 1934); format: functional; details: Homo sapiens
# [7] = HEK-293T viability loss after treatment – luminescence, T-cell screen hits, cytotoxicity control for TCR NF-kB inhibitor project, dose response (AID 489026); format: functional, cell-based;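 also: cells exposed to compound about 14 hours before the viability readout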
# Cytochrome P450 2C19 = Cytochrome P450 2C19 (Homo sapiens, UniProt P33261); assay: Cytochrome panel assay with activity outcomes. Panel member name: p450-cyp2c19 Compounds with AC50 equal or less than 10 uM are considered active; format: functional; details: read-out: AC50
# Chain of Cytochrome P450 2C19 (P33261 whole entry): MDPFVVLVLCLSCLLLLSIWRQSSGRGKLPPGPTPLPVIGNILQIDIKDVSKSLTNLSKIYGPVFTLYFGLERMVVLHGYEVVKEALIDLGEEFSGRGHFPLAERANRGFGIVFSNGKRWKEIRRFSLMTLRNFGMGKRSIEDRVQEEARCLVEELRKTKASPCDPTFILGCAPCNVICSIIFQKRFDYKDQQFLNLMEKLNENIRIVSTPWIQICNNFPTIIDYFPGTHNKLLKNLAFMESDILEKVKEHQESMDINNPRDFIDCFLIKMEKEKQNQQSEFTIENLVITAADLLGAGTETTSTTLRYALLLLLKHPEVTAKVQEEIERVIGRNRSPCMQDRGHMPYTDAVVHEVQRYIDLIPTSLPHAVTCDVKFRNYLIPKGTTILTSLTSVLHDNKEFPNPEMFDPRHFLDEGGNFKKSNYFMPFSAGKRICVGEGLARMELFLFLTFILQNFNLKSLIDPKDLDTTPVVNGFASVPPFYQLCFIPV
# Cytochrome P450 2C9 = Cytochrome P450 2C9 (Homo sapiens, UniProt P11712)
# Chain of Cytochrome P450 2C9 (P11712 whole entry): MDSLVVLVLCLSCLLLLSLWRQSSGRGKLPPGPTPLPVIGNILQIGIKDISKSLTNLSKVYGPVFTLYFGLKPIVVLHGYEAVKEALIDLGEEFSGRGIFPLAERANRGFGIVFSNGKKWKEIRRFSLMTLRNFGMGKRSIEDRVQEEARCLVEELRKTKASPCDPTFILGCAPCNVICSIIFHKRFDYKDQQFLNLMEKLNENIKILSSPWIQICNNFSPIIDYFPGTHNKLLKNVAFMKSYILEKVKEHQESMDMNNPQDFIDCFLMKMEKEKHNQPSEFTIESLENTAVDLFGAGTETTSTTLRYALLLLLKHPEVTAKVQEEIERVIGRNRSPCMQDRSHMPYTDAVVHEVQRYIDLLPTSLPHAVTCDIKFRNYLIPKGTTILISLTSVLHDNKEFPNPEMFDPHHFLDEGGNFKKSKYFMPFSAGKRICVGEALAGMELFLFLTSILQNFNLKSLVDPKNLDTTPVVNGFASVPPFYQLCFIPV
# [8] = molecular target: T3, High affinity choline transporter 1 (Homo sapiens, UniProt Q9GZV3); assay: human choline transporter blockers, potency – cell-based, 5-point CRC, membrane potential dye, dose response (AID 504840); format: functional
# T3 sequence (Q9GZV3 whole entry): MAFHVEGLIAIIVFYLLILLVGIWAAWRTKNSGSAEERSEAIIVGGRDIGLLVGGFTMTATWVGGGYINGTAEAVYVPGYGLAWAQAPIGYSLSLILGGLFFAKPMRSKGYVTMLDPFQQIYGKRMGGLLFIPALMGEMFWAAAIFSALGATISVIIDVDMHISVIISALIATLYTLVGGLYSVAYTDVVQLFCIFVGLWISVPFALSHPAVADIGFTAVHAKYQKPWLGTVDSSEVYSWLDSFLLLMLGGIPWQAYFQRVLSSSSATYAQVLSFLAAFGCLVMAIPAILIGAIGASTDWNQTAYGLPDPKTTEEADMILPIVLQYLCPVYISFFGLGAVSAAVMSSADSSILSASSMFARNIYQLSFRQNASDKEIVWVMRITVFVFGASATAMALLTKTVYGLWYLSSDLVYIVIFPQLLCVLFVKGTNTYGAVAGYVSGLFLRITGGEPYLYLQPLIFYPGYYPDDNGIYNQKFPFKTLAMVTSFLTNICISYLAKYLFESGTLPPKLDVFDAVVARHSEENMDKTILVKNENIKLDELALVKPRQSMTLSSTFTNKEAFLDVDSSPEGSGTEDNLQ
# [9] = NIH-3T3 fibroblast cytotoxicity, dose response, cytotoxicity control, cell-based, fluorescence, Alamar Blue, secondary assay (AID 2327); format: functional;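 also: NIH-3T3 mouse fibroblasts cultured with fluconazole at 8 µg/mL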
# [10] = fluconazole-exposed Candida albicans growth modulators – fluorescence, retest, confirmation (AID 2467); format: functional, cell-based
# [11] = molecular target: T4, Heat shock factor protein 1 (Mus musculus, UniProt P38532); assay: enhancement of HSF1-driven luciferase signal – cell-based, NIH3T3, luminescence, dose retest, confirmation (AID 435004); format: functional;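 also: stress induced by proteasome inhibitor MG132 added 30 min after compound; luciferase reporter driven by HSF1 response element in NIH3T3 cells; actives raise luminescence as potentiators of the MG132 stress response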
# T4 sequence (P38532 whole entry): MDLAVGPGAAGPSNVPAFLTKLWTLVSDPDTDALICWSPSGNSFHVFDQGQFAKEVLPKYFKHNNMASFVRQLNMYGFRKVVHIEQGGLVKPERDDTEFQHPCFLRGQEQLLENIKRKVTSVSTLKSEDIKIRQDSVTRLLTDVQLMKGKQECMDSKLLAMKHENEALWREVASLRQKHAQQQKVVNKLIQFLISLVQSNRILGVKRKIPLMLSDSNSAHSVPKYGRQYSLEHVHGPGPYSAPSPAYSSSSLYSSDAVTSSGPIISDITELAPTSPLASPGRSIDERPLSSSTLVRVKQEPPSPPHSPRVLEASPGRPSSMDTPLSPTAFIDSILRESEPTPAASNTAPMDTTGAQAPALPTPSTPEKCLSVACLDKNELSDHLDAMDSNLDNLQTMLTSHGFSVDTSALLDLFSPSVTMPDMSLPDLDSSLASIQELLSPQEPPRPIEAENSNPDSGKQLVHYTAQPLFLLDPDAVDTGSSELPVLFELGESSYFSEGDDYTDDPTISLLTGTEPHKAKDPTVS
# [12] = molecular target: T5, Microphthalmia-associated transcription factor (Homo sapiens, UniProt O75030); assay: reducers of TRPM1 reporter luminescence, concentration series – cell-based, SK-MEL-5, cherry-picked, set 3, MITF inhibitor project, dose response (AID 493073); format: functional;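 also: SK-MEL-5 melanoma cells with luciferase driven by the MITF target TRPM1 promoter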
# T5 sequence (O75030 whole entry): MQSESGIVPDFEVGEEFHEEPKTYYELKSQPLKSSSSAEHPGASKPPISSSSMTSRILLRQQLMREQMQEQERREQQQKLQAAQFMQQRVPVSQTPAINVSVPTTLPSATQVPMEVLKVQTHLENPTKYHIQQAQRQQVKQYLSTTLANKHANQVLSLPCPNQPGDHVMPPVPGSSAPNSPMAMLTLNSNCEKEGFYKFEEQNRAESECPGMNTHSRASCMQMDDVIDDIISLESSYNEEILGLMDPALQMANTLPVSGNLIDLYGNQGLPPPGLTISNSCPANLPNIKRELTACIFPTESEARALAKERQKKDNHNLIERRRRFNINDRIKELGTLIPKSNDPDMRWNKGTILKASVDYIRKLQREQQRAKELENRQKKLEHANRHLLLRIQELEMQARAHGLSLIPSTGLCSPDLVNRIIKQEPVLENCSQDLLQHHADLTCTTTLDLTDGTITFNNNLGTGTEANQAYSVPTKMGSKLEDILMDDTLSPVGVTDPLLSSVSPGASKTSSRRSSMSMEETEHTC
# [13] = molecular target: T6, Polyadenylate-binding protein 1 (Homo sapiens, UniProt P11940); assay: MLLE binding blockers, Cy5 peptide tracer – biochemical, fluorescence polarization, Cy5-PAM2 peptide, secondary, miRNA deadenylation inhibitor project, dose response (AID 602260); format: functional; details: read-out: IC50_Mean
# T6 sequence (P11940 whole entry): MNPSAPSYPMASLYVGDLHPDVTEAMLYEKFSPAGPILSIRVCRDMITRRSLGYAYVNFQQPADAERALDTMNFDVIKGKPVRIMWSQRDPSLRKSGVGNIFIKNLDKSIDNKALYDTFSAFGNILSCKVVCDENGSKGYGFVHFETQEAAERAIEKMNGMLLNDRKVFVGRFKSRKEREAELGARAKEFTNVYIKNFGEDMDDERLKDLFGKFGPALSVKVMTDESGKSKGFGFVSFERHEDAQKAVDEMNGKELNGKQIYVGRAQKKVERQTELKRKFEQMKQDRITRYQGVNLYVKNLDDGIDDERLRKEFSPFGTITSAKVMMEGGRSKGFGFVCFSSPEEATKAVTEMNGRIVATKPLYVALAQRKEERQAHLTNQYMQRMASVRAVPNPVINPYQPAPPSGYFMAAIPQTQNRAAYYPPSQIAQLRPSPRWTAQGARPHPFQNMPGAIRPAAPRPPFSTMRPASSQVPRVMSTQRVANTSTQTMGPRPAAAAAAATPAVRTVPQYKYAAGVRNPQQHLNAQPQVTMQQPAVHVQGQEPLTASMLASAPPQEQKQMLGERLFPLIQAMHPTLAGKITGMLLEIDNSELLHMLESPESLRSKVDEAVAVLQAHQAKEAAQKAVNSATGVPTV
# [14] = reduction of Shn3 3'UTR-driven luciferase in osteoblasts – cell-based, Clone20 osteoblasts, firefly luciferase, cherry-picked, dose response (AID 624132); format: functional;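 also: firefly luciferase luminescence from reporter carrying the Shn3 3'UTR in osteoblasts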
# [15] = molecular target: T6, Polyadenylate-binding protein 1; assay: MLLE domain peptide-binding blockers, IC50 – biochemical, fluorescence polarization, FITC-PAM2 peptide, dose response (AID 602259); format: functional; details: read-out: IC50_Mean
# [16] = loss of viability in HepG2 cells – cell-based, CellTiter-Glo, cherry-picked, cytotoxicity control for Shn3 inhibitor project, dose response (AID 624134); format: functional
# [17] = non-specific 3'UTR reporter inhibition in Clone20-Shn3RL – cell-based, Renilla luciferase, cherry-picked, counter-screen for Shn3 inhibitor project, dose response (AID 624133); format: functional
# [18] = Trypanosoma cruzi growth suppression in host cells – NIH3T3 host cells, beta-gal luminescence, confirmation (AID 2044); format: functional, cell-based;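 also: intracellular parasites grown in NIH/3T3 mouse fibroblasts as host cells; luminescent beta-galactosidase reporter signal from transgenic T. cruzi replicating inside host cells; inhibitors lower the luminescence signal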
# [19] = NIH3T3 cell viability loss – ATP luminescence, mouse fibroblasts, counter-screen, dose response (AID 2010); format: functional, cell-based;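 also: cells exposed to compound for about 90 hours before reading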
# Chain of Cytochrome P450 3A4 (P08684 whole entry): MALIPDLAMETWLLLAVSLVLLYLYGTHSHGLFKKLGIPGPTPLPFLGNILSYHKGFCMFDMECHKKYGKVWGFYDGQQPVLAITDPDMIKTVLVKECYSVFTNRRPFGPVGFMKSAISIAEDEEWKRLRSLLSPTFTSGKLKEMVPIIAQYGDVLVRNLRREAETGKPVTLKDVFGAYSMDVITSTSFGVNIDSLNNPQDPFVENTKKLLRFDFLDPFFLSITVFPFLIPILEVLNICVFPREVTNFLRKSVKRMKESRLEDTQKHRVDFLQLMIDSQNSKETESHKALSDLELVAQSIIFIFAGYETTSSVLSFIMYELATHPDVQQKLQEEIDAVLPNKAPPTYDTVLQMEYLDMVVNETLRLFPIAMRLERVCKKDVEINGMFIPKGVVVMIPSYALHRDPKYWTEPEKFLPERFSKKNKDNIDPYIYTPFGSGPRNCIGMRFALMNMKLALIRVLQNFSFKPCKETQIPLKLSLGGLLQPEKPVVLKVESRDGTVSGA
# Chain of Large T antigen (P03070 whole entry): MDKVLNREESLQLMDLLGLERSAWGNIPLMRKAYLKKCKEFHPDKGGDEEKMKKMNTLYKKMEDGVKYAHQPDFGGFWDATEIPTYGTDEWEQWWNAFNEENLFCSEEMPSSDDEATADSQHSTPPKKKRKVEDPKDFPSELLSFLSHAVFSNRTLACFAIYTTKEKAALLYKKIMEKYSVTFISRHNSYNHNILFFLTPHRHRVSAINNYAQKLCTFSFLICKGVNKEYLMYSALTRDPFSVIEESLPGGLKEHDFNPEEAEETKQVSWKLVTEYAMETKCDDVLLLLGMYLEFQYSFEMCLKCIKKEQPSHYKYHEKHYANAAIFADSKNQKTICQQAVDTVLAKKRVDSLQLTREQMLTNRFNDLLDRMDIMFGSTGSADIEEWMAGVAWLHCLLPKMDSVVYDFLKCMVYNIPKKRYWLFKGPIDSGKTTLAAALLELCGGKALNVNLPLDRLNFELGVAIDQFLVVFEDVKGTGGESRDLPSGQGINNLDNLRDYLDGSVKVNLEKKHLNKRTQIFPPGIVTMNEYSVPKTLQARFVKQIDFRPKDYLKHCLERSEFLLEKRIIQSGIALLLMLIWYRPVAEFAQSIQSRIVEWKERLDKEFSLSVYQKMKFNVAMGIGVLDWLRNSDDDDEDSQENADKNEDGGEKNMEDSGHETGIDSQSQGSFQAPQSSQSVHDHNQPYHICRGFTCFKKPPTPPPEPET
compound,measurement,setting,value
Cc1nnc(NN/C=C2\C(=O)N(c3cccc(C(F)(F)F)c3)C(=O)c3ccccc32)nc1O,IC50,Large T antigen,15.2 µM (active)
C=CCOC(=O)C(C(C)=O)C(NC(=O)OC)c1ccc2ccccc2c1 (configuration not stated),AC50,Cytochrome P450 3A4,1 µM (inconclusive)
COc1ccc(Nc2ccc([N+](=O)[O-])c3nonc23)c(OC)c1,IC50,Nonstructural protein 1,> 100 µM (active)
Cn1c(N)c(C(=O)COC(=O)c2ccnc3ccccc23)c(=O)n(C)c1=O,AC50,Cytochrome P450 3A4,15.8 µM (inconclusive)
NC(=O)c1snnc1-c1ccccc1,EC50,[1],> 300 µM (not active)
same,EC50,[2],> 300 µM (not active)
COc1ccccc1NC(=O)Cn1nnc(C(=O)NCc2cccs2)c1N,EC50,BJ [3],1.96 µM (active)
same,EC50,BJ [4],19.3 µM (active)
same,EC50,BJ [5],1.41 µM (active)
same,EC50,[6],1.18 µM (active)
same,IC50,[7],> 80 µM (inactive)
COc1ccc(/C=C2/C(=O)OCc3cc(OC)c(OC)cc32)cc1,IC50,[7],78.5 µM (inactive)
CCC(=S)/C=C1\Sc2ccc3ccccc3c2N1CCCS(=O)(=O)O,EC50,[1],> 300 µM (not active)
same,EC50,[2],> 300 µM (not active)
same,AC50,Cytochrome P450 2C19,28.2 µM (inconclusive)
same,AC50,Cytochrome P450 2C9,20 µM (inconclusive)
CCCc1ccc(OCc2ccc(C(=O)NCc3cccnc3)o2)c(OC)c1,IC50,[8],5.01 µM (active)
Cc1cc(Sc2ncnc(N)c2[N+](=O)[O-])ncn1,EC50,[9],2.67 µM (inconclusive)
same,EC50,[10],0.58 µM (active)
same,EC50,[11],12.2 µM (active)
same,AC50,[12],7.61 µM (active)
same,IC50,[13],> 66 µM (inactive)
same,AC50,[14],5.7 µM (active)
same,IC50,[15],> 66 µM (inactive)
same,AC50,[16],30.1 µM (active)
same,AC50,[17],7.76 µM (active)
O=C(Nc1nc(-c2ccccc2)cs1)c1ccc(N2CCOCC2)c([N+](=O)[O-])c1,EC50,[18],0.895 µM (active)
same,EC50,[19],> 60 µM (inconclusive)
same,IC50,[7],10.2 µM (active)
same,AC50,[14],3.75 µM (active)
same,AC50,[16],1.59 µM (active)
same,AC50,[17],3.52 µM (active)
O=C(c1ccc(C[S+]([O-])c2ccccc2Cl)o1)N1CCN(c2ccccn2)CC1 (configuration not stated),IC50,[7],> 80 µM (inactive)
O=C(COC(=O)CCc1c[nH]c(=O)[nH]1)Nc1ccccc1Cl,EC50,[1],> 300 µM (not active)
same,EC50,[2],53.5 µM (active)
Nc1cccc(N)c1,AC50,Cytochrome P450 3A4,31.6 µM (inconclusive)
Cc1cc(Cl)ccc1OCCCC(=O)N1CCN(C(=O)c2ccco2)CC1,IC50,[8],2 µM (active)

# — ChEMBL document CHEMBL1201862, “PubChem BioAssay data set” (2004)
